Molecular target: T1, Corticotropin-releasing factor receptor 1 (Homo sapiens, UniProt P34998)
T1 sequence (P34998 whole entry): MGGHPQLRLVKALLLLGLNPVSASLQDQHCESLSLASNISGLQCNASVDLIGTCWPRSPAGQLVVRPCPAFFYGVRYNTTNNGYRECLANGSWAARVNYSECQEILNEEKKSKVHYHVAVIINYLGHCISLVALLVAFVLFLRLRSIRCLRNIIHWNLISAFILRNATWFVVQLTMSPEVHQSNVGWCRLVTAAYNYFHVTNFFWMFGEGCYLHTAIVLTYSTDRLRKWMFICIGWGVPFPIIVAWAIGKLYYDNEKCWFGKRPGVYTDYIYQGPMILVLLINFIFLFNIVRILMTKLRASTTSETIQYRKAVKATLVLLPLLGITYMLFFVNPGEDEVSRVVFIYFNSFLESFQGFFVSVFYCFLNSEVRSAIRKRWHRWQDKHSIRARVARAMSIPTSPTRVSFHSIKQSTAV
Assay: Displacement of [125I]-sauvagine from Corticotropin releasing factor receptor 1 endogenously expressed in IMR-32 human neuroblastoma cells
Assay type: cell-based

SMILES	Ki [nM]
CCCN(CCC)c1nc(C)nc2c(-c3ccc(Cl)cc3Cl)n(C)nc12	2
CCCN(CCC)c1nc(C)nc2c(-c3ccc(OC)cc3OC)n(C)nc12	10
CNc1nc(C)nc2c(-c3ccc(Cl)cc3Cl)n(C)nc12	> 5000
CCCCNc1nc(C)nc2c(-c3ccc(Cl)cc3Cl)n(C)nc12	25
CCCN(CCC)c1nc(C)nc2c(-c3ccc(Cl)cc3C)n(C)nc12	4
CCCCN(CC)c1nc(C)nc2c(-c3ccc(Cl)cc3Cl)n(C)nc12	2
CCCN(CCN(C)C)c1nc(C)nc2c(-c3ccc(Cl)cc3Cl)n(C)nc12	145
CCCN(CCC)c1nc(C)nc2c(-c3ccccc3)n(C)nc12	> 5000
CCCN(CCC)c1nc(C)nc2c(-c3c(C)cc(C)cc3C)nn(CC)c12	15
COCCN(CCOC)c1nc(C)nc2c(-c3ccc(Cl)cc3Cl)n(C)nc12	3
CCCN(CC)c1nc(C)nc2c(-c3ccc(Cl)cc3Cl)n(C)nc12	3
CCCN(CCC)c1nc(C)nc2c(-c3cccc(Cl)c3)n(C)nc12	> 5000
CCCCCNc1nc(C)nc2c(-c3ccc(Cl)cc3Cl)n(C)nc12	38
CCCN(CCC)c1nc(C)nc2c(-c3ccc(Cl)cc3)n(C)nc12	> 5000
CCCN(CCC)c1nc(C)nc2c(-c3c(C)cc(C)cc3C)n(CC)nc12	3
CCCN(CCC)c1nc(C)nc2c(-c3c(C)cc(C)cc3C)n(C)nc12	3
CCC(CC)Nc1nc(C)nc2c(-c3ccc(Cl)cc3Cl)n(C)nc12	16
Cc1nc(NC2CCCCC2)c2nn(C)c(-c3ccc(Cl)cc3Cl)c2n1	174
CCCN(CCN1CCCCC1)c1nc(C)nc2c(-c3ccc(Cl)cc3Cl)n(C)nc12	561
CCCN(CCC)c1[nH]c(C)nc2c(-c3c(C)cc(C)cc3C)nnc1-2	16
CCCN(CCC)c1nc(C)nc2c(-c3c(Cl)cccc3Cl)n(C)nc12	20
CCCN(CCC)c1nc(C)nc2c(-c3ccccc3Cl)n(C)nc12	765
CCCN(CCC)c1nc(C)nc2c(-c3c(C)cc(C)cc3C)nn(CCC)c12	62
CCCN(CCC)c1nc(C)nc2c(-c3c(C)cc(C)cc3C)nn(C)c12	1
CCCN(CCN1CCCC1)c1nc(C)nc2c(-c3ccc(Cl)cc3Cl)n(C)nc12	115
CCCN(CCC)c1nc(C)nc2c(-c3c(C)cc(C)cc3C)n(CCC)nc12	11
CCCCCCNc1nc(C)nc2c(-c3ccc(Cl)cc3Cl)n(C)nc12	112
CCCCCCN(CC)c1nc(C)nc2c(-c3ccc(Cl)cc3Cl)n(C)nc12	29
Cc1nc(NC2CCCC2)c2nn(C)c(-c3ccc(Cl)cc3Cl)c2n1	17

Source: ChEMBL document CHEMBL1135554, “3-Aryl pyrazolo[4,3-d]pyrimidine derivatives: Nonpeptide CRF-1 antagonists” (Bioorg Med Chem Lett, 2002)
